# Tests used:
# [1] = target: T1, cellular human deoxyhypusyl hydroxylase (Homo sapiens, UniProt Q9BU89); experiment: Cellular human deoxyhypusyl hydroxylase (DOHH assay, 3H-spermidine labeling); type: cell-based
# T1 construct: endogenous in cells; host or cells: cultured human cells (smooth muscle cells, B-lymphocytes)
# T1 sequence (Q9BU89 1-302): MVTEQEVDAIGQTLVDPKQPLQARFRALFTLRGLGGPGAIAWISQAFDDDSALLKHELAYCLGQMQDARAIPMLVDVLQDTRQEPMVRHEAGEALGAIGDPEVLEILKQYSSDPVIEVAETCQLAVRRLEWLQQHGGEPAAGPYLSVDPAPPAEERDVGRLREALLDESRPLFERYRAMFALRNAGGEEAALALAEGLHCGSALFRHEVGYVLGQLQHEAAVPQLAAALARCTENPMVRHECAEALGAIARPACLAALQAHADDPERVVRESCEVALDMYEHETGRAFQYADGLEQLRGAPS
# Text: (§1) The inhibitory action of the substances according to the invention, for example on collagen secretion or cell proliferation, can be tested in direct assays of the enzymes mediating the pivotal protein hydroxylations for these biological processes, such as prolyl 4-hydroxylase and deoxyhypusyl hydroxylase. This entails the enzymatic hydroxylation of the appropriate protein precursor, either by the cellular or the purified enzyme, in the presence or absence of compounds of Formulae (I) or (II), with concomitant determination of co-substrate utilization by these enzymes or subsequent isolation of the hydroxylated amino acid and its unhydroxylated precursor. In this manner, the inhibitory potency of any given compound can be measured in the cell-free system, in cell culture, or in tissue, and is expressed as the inhibitory dose that gives a 50% reduction of the enzyme-mediated reaction (ID50). Enzyme is tested in analogy to the method of A. Abbruzzese, H. M. Hanauske-Abel, et al., Biochem. Biophys. Acta, 1077, 159-166 (1991) and of K. Majamaa, H. M. Hanauske-Abel, et al., Eur. J. Biochem. 138, 239-245 (1984), which are hereby incorporated by reference. Table III lists the ID50 values of some of the compounds according to the invention, using purified human prolyl 4-hydroxylase and cellular human deoxyhypusyl hydroxylase as representative protein hydroxylases.
# The inhibiting effect of hydroxypyridones on the eIF-5A-hydroxylating enzyme was studied in cultured human cells (i.e. smooth muscle cells, B-lymphocytes).
# (§2) The cellular conversion of the precursor deoxyhypusine to the hydroxylated hypusine in cells was examined, after preincubation with the inhibitor for 60 minutes, by labeling the human cells with ^3 H-spermidine (5 μCi/ml) in 25 cm^2 flasks (1×10^6 cells/flask) for 24 hours prior to cell lysis, precipitation with 10% TCA containing 1 mM each of putrescine, spermidine, and spermine, and hydrolysis in 6 N HCl at 110° C. for 16 hours. The hydrolysate was analyzed for labeled amino acids on an amino acid analyzer by published methods (Park et al., J. Biol. Chem., 257:7217-7222 (1982), which is hereby incorporated by reference). The retention of purified hypusine and deoxyhypusine was determined from standards.
# [2] = system: deoxyhypusyl hydroxylase activity in human B-lymphocytes; experiment: Cellular deoxyhypusyl hydroxylase in human B-lymphocytes; type: cell-based; settings: FIG. 3a
# Protocol: In FIG. 3a, the effect on the human enzyme was determined by measuring in proliferating cultured B-lymphocytes the covalent incorporation of tritiated spermidine-derived label into cellular protein, after standard hydrolysis, chromatographic separation of amino acids, and expression of the results relative to uninhibited controls. In FIG. 3b, a standard chromatographic elution profile is shown as obtained from cultured human smooth muscle cells ("SMC"), grown out of coronary atherosclerotic lesions and metabolically labeled in the absence and presence of L-mimosine. […]
# as §2
# [3] = target: T2, purified human prolyl 4-hydroxylase (Homo sapiens, UniProt P13674); experiment: Assay of purified human prolyl 4-hydroxylase (14CO2 release from 2-oxoglutarate, cell-free); type: biochemical
# T2 construct: made in house; host or cells: Spodoptera frugiperda insect cells (baculovirus, co-expression of α- and β-subunits)
# T2 sequence (P13674 18-534): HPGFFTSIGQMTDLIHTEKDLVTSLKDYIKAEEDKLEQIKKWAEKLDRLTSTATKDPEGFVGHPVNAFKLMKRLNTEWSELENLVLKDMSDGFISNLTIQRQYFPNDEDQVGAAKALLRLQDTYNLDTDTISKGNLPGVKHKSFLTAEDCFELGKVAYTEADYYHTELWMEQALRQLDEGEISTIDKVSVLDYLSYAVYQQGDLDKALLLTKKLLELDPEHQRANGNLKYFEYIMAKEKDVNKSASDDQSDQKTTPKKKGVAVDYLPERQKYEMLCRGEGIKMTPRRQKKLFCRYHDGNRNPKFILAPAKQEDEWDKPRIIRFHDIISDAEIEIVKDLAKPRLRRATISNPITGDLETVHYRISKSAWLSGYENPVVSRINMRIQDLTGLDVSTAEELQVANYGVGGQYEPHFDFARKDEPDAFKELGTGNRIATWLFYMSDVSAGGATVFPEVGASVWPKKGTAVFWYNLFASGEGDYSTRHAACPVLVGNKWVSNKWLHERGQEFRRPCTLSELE
# T2 sequence (P07237 18-508 partner): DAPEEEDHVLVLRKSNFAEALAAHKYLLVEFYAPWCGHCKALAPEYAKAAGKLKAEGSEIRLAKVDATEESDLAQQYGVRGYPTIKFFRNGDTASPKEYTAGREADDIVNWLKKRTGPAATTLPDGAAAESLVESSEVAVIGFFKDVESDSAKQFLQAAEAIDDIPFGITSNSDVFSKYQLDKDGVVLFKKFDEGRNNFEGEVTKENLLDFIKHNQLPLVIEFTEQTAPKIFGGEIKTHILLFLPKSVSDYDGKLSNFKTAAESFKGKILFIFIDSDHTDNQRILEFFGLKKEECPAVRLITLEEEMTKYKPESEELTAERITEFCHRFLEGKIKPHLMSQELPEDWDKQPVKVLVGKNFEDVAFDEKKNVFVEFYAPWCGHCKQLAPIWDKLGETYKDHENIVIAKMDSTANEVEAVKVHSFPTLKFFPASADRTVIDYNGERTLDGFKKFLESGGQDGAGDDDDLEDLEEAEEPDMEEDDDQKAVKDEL
# Protocol: The effect on the enzyme was determined in a cell-free system by measuring the oxidative decarboxylation of its cofactor 2-oxoglutarate via release of radiolabeled carbon dioxide in a standard reaction mixture also containing ascorbate, ferrous sulfate, and unhydroxylated peptide substrate.
# as §1
# The inhibiting effect of hydroxypyridones on the collagen-hydroxylating enzyme was studied in a cell-free system.
# Assay of purified human prolyl 4-hydroxylase
# The native α2 β2 -tetrameric enzyme was purified to homogeneity by poly(L-proline) affinity chromatography and DEAE chromatography from the supernatant of Spodoptera frugiperda insect cells cotransfected with recombinant baculovirus transfer vectors for both the human α- and β-subunits. Enzyme activity was determined by trapping of ^14 CO2 released from 2-oxo[1-^14 C][glutarate] according to the procedure of Majamaa, et al., Eur. J. Biochem., 138:239-245 (1984), which is hereby incorporated by reference. Briefly, all incubations were run for 60 minutes at 37° C. in a final volume of 1.0 ml per test sample, containing 0.1 μg enzyme, 0.1 mg heat-denatured (Pro-Pro-Gly)10 ×9 H2 O as hydroxylatable substrate, 0.1 mM 2-oxo[1-^14 C][glutarate] adjusted to 60,000 dpm by mixing with the unlabeled 2-oxoglutarate as cosubstrate, and cofactors (1.6 mM ascorbate, 0.05 mM ferrous sulfate, 0.08 mM dithiothreitol, 2 mg bovine serum albumin, 5 μL catalase). Assays are performed with only one of the active compounds at any given time.
smiles,measurement,setting,value
N[C@@H](Cn1ccc(=O)c(O)c1)C(=O)O [L-Mimosine],inhibition of deoxyhypusyl hydroxylase,"[1]; FIG. 3, assayed in vitro",directly inhibit
same,Deoxyhypusyl hydroxylase ID50 (cellular),"[1]; cellular human enzyme, inhibitory dose that gives 50% reduction of the enzyme-mediated reaction, unit assumed",65 µM
same,inhibition of deoxyhypusyl hydroxylase activity,[2],inhibit deoxyhypusyl hydroxylase activity
same,inhibition of purified human prolyl 4-hydroxylase,"[3]; cell-free system, FIG. 1",directly inhibit
same,Prolyl 4-hydroxylase ID50 (purified),"[3]; purified human enzyme, inhibitory dose that gives 50% reduction of the enzyme-mediated reaction, unit assumed",120 µM

# From patent US6046219A, “Method for the treatment of conditions mediated by collagen formation together with cell proliferation by application of inhibitors of protein hydroxylation” (Cornell Research Foundation, Inc., priority 1997, dated 2000)
